Measurements from US20150087722A1, “TREATMENT FOR BREAST TUMOR CELL METASTASIS” (China Medical University, priority 2012, published 2015).

Columns and labels:
Assay type in all cases: cell-based, human
[1] = test system: breast tumor cells MDA-MB-453; test: MTT cell viability assay; conditions: for cell viability: FIG. 24
Protocol: The breast tumor cells (MDA-MB-231, MDA-MB-435, MDA-MB-453, MDA-MB-468 and MCF-7) were commercially obtained from the bioresource collection and research center (BCRC), and were cultured in a 10% FBS-DMEM culture medium (i.e., a DMEM culture medium including 10% fetal bovine serum (FBS)). The human breast cell MCF-10A was cultured in a 5% FBS-DMEM culture medium (including F12, insulin, hydrocortisol and epidermal growth factor). An environment of 5% CO2 was kept in the incubator at a constant temperature of 37° C. When a certain number of cells were generated in culture, the culture medium was removed after being centrifuged for 10 min at a rate of 900 rpm. The culture medium was replaced in 24 h before the experiment, and the number of cells was counted by a hemocytometer.
The cell viability was determined by a method of […] (MTT assay). The test method for assaying cell viability refers to steps provided by Parada-Turska et al.
The breast tumor cells MDA-MB-231 were inoculated in a 24-well plate (2.5×10^5 cells/well), and the next day after cells were adhered to the wall of the plate, the cells were washed with PBS. 1% FBS-DMEM culture medium was then added so as to synchronize cells. The next day compound II having different concentrations were added into the wells, and the cells were subsequently cultured in an atmosphere of 5% CO2 at 37° C. for 24 h. The cells were washed with PBS once, and 400 μl MTT agent was added in each well so as to react for 4 h. Then 400 μl 10% SDS was added in each well so as to react for 12 h. 200 μl supernatant was taken from the well and then added into a 96-well microplate, so as to measure the absorbance at 570 nm.
In the MTT assay, the MDA-MB-453 cells were cultured in a culture medium including 5% fetal bovine serum-DMEM F12/insulin/hydrocortisol/epidermal growth factor. Then the cells were cultured at an atmosphere of 5% CO2 in an incubator at a constant temperature of 37° C. When a certain number of cells were generated in culture, the culture medium was removed after being centrifuged at 900 rmp for 10 min. The culture medium was replaced in 24 h before the experiment, and the number of cells was counted by a hemocytometer.

[2] = test system: E-cadherin and Vimentin in MDA-MB-231 cells; test: E-cadherin Luciferase activity / immunocytochemical analysis (ICC)
Source text: Thus, taking the MDA-MB-231 cell as an example, the expression results of E-cadherin and Vimentin in the cell were observed. FIG. 6 is a quantitative analysis diagram showing Luciferase activity of E-cadherin obtained from a primary antibody E-cadherin by an immunocytochemical analysis (ICC). In FIG. 6, a transformed cell strain only including an empty vector (pC3.1) is the negative control, and a cell strain including no compound II is the background control, the translational activity is defined as 100%. ICC includes embedding the tumor cells in paraffin and slicing the embedded cells into slides having a thickness of […] by a slicer, deparaffinizing, rehydrating and renaturating, picking the slide out and putting the slide into the primary antibody E-cadherin; reacting for 1.5 h and washing the slide for three times with PBS, reacting with the secondary antibody for 30 min and washing the slide for three times with PBS, staining the slide with 3′,3′-diaminobenzendine (DAB) at a ratio of 1:30, and the slide was mounted with Entellanz.

[3] = test system: breast tumor cells MDA-MB-231; test: wound scratching assay (cell migration)
Protocol: Referring to FIG. 14, the wound scratching assay was performed to analysis effect of the compound II in different doses on tumor cell metastasis. In the wound scratching assay for observing cell migration, the cells MDA-MB-231 (3×10^5) were planted in a 12-well plate, and the next day the cells were washed with PBS twice. The original culture medium then was replaced by 1% FBS cell culture medium. The next day a space was scratched at the bottom of the well. The cell culture medium was removed and the cells were washed with PBS twice. 1% FBS cell culture medium and the compound II of different concentrations were added and photographs were taken after 0, 12, 24 and 36 h so as to observe migration of cells. After the reaction, the cells were fixed for 30 min using 75% ice alcohol. After the alcohol was completely volatilized, the cells were stained with Giemsa Stain. The migration number of cells was counted in three random fields (200×) under the microscope (Lin et al., 2008). […] After the breast tumor cells were treated for 0, 12, 24 and 36 h, the quantitative result of effect of the compound II on metastasis of breast tumor cells MDA-MD-231 was observed, and the data results were represented by mean±SD values, where n=3.

[4] = test system: ROS content in breast tumor cells MDA-MB-453; test: reactive oxygen species method; conditions: 40 μM
Protocol: In FIG. 12, the reactive oxygen species method was used to detect the effect of increased treatment doses of the compound II on the ROS content in breast tumor cells, and a photograph was taken at a 200× field under the fluorescence microscope. In the intracellular reactive oxygen species method, the cells were planted in a 24-well plate (5×10^4 cells/well). The next day after the cells were adhered to the wall, the cells were cultured in a serum free DMEM culture medium at an atmosphere of 5% CO2 in an incubator at 37° C. for 12 h. The compound II was added into the 1% FBS-DMEM culture medium, and the cells were cultured in the culture medium for 2 h. The cells were then washed with PBS. 100 ng/mL LPS was added to react with the cells, and then the cells were washed with PBS. […] The absorbance was measured by a fluorescence spectrometer, where the excitation wavelength was set as 485±20 nm, and the […] was set as 530±25 nm. […] Thus in the following the cells were treated with 40 μM the compound II and then the ROS content of cells was detected. […] FIG. 23 is a quantitative diagram showing the effect of increasing treatment time on the ROS content of breast tumor cells when the reactive oxygen species method was performed to detect the breast tumor cells treated with 40 μM the compound II. […]

IC50 ([1]; Homo sapiens, viability, MDA-MB-453 cell strain, Table 1): 36.7 µM
SMILES: COC1=C(OC)C(=O)C(C)=C(C)C1=O [compound II]
cell viability ([1]; 40 μM with 2.5 mM antioxidant NAC): recovered | cell viability ([1]; 40 μM, compound only): half of that in the control group | viability of breast tumor cells ([1]; MDA-MB-453, with increasing concentration, FIG. 21): inhibited significantly | expression of vimentin ([2]; MDA-MB-231): inhibit expression of vimentin | expression amount of E-cadherin in the cytoplasm ([2]; MDA-MB-231, with dose increasing, FIG. 6): increased | breast tumor cells migrated ([3]; 0.5 μM, in 12-24 h): 60-70% | migration capability of breast tumor cells ([3]; concentration above 1 μM): significantly inhibited | content of oxygen species compared with the control group [4]: higher
